From patent USRE49816E1, “Dipeptides as inhibitors of human immunoproteasomes” (CORNELL UNIVERSITY, priority 2014, dated 2024)

Key:
[1] = molecular target: hu i-20S β5i-subunit (Homo sapiens, UniProt P20618+P28062); assay: N,C-capped dipeptides IC50, Ac-ANW-AMC fluorescence assay; format: biochemical; details: for SI (selectivity index): Hu c-20S over Hu i-20S
Method: (§1) All inhibitory assays for N,C capped dipeptides were performed in a black solid-bottom 96-well plate. In general, compound plates were prepared starting from 10 mM in 3× series dilution to 15 μM. 1 μl of DMSO stock was transferred to a black 96-well plate and 100 μL of reaction mixture were added 15 μM N-acetyl-Alanine-Asparagine-Tryptophan-7-amino-4-methylcourmarin (Ac-ANW-AMC) or 25 μM succinyl-Leucine-Leucine-Valine-Tyrosine-7-amino-4-methyl-courmarin (succ-LLVY-AMC), 0.4 nM hu i-20S β5i-subunit or 0.2 nM hu c-20S β5c-subunit, 0.02% SDS, 1% BSA, 0.5 mM EDTA in 20 mM HEPES buffer at pH7.5. The plates were then spun at 1000 rpm for 1 minute, and the fluorescence units of each well were recorded at λex=360 nm, λem=460 nm for 2 hours. The slopes of the initial linear range of the time course were used to calculate the velocity, and relative activities were normalized to the velocities of the DMSO control.

[2] = molecular target: hu c-20S β5c-subunit (Homo sapiens, UniProt P20618+P28074); assay: N,C-capped dipeptides IC50, succ-LLVY-AMC fluorescence assay; format: biochemical
Method: as §1

[3] = system: Karpas 1106p cells; assay: Cytotoxicity (LD50) against Karpas lymphoma cells; format: cell-based, human; details: Table 3
Excerpt: Table 3 lists the inhibition kinetic parameters, selectivity index, and calculated log Ps of selected dipeptides.

COC[C@H](NC(=O)[C@H](CC(=O)NOC(C)(C)C)NC(=O)c1cc(C)on1)C(=O)NCc1cccc2ccccc12 [DPLG-2144, (S)—N^4-(tert-butoxy)-N^1—((S)-3-methoxy-1-((napthalen-1-ylmethyl)amino)-1-oxopropan-2-yl)-2-(5-methylisoxazole-3-carboxamido)succinamide]
IC50 [1]: 9 nM
SI (selectivity index) [1]: 69
IC50 [2]: 620 nM
LD50 [3]: 1.47 µM

CC(C)(C)NC(=O)C[C@H](NC(=O)CCc1ccccc1)C(=O)N[C@@H](Cc1ccc(F)cc1)C(=O)NCc1cccc2ccccc12 [DPLG-3066]
IC50 [1]: 5.3 nM
SI (selectivity index) [1]: >19000
IC50 [2]: > 100000 nM
LD50 [3]: 0.198 µM

COC[C@H](NC(=O)[C@H](CC(=O)NOC(C)(C)C)NC(=O)CCc1ccccc1)C(=O)NCc1cccc2c1NCCC2 [DPLG-2226, (S)—N^4-(tert-butoxy)-N^−1—((S)-3-methoxy-1-oxo-1-(((1,2,3,4-tetrahydroquinolin-8-yl)methyl)amino)propan-2-yl)-2-(3-phenylpropanamido)succinamide]
IC50 [1]: 1150 nM
SI (selectivity index) [1]: 68
IC50 [2]: 78100 nM
LD50 [3]: >100 µM

C[C@H](NC(=O)[C@H](CC(=O)NOC(C)(C)C)NC(=O)c1cnccn1)C(=O)NCc1cccc2ccccc12 [DPLG-2098]
LD50 [3]: >100 µM

C[C@H](NC(=O)[C@H](CCC(=O)NC(C)(C)C)NC(=O)CCc1ccccc1)C(=O)NOc1ccccc1 [DPLG-3013]
IC50 [1]: 230 nM
SI (selectivity index) [1]: 2.9
IC50 [2]: 660 nM
LD50 [3]: 11.03 µM

COC[C@H](NC(=O)[C@H](CC(=O)NC(C)(C)C)NC(=O)c1cc(C)on1)C(=O)NCc1cccc2ccccc12 [DPLG-2244, (S)—N^4-(tert-butyl)-N^1((S)-3-methoxy-1-((naphthalen-1-ylmethyl)amino)-1-oxopropan-2-yl)-2-(5-methylisoxazole-3-carboxamido)succinamide]
LD50 [3]: 2.20 µM

COC[C@H](NC(=O)CCc1ccccc1)C(=O)N[C@@H](Cc1ccc(F)cc1)C(=O)NCc1cccc2ccccc12 [DPLG-2054, (S)-3-(4-fluorophenyl)-2-((S)-3-methoxy-2-(3-phenylpropanamido)propanamido)-N-(naphthalen-1-ylmethyl)propanamide]
IC50 [1]: > 100000 nM
SI (selectivity index) [1]: <0.8
IC50 [2]: 75800 nM
LD50 [3]: >100 µM

COC[C@H](NC(=O)[C@H](CC(=O)NOC(C)(C)C)NC(=O)Cc1ccccc1)C(=O)NCc1cccc2ccccc12 [DPLG-2222, (S)—N^4-(tert-butoxy)-N^1—((S)-3-methoxy-1-((naphthalen-1-ylmethyl)amino)-1-oxopropan-2-yl)-2-(2-phenylacetamido)succinamide]
IC50 [1]: 11 nM
SI (selectivity index) [1]: 70
IC50 [2]: 738 nM
LD50 [3]: >100 µM

COC[C@H](NC(=O)[C@H](CC(=O)NOC(C)(C)C)NC(=O)CCc1ccccc1)C(=O)NCc1cccc(OC)c1OC [DPLG-2211]
IC50 [1]: 245 nM
SI (selectivity index) [1]: 5
IC50 [2]: 1280 nM
LD50 [3]: 4.18 µM

CC(C)(C)NC(=O)CC[C@H](NC(=O)CCc1ccccc1)C(=O)N[C@@H](Cc1ccc(F)cc1)C(=O)NCc1cccc2ccccc12 [DPLG-3083]
IC50 [1]: 3.3 nM
SI (selectivity index) [1]: 90
IC50 [2]: 300 nM
LD50 [3]: 1.20 µM

C[C@H](NC(=O)[C@H](CC(=O)NOC(C)(C)C)NC(=O)CCc1ccccc1)C(=O)NCc1cccc2ncccc12 [DPLG-2073, (S)—N^4-(tert-butoxpropan-2-yl)-2-(3-phenylpropanami-do)succinamide]
IC50 [1]: 1370 nM
SI (selectivity index) [1]: 10
IC50 [2]: 13300 nM
LD50 [3]: >100 µM

CC(C)(C)NC(=O)C[C@H](NC(=O)C(=O)c1c[nH]c2ccccc12)C(=O)N[C@@H](Cc1ccc(F)cc1)C(=O)NCc1cccc2ccccc12 [DPLG-3084]
IC50 [1]: 1.4 nM
SI (selectivity index) [1]: 26
IC50 [2]: 37 nM
LD50 [3]: 0.084 µM

COC[C@H](NC(=O)[C@H](CC(=O)NC1COC1)NS(=O)(=O)c1ccc(C)cc1)C(=O)NCc1cccc2ccccc12 [DPLG-2229]
IC50 [1]: 69 nM
SI (selectivity index) [1]: 236
IC50 [2]: 19300 nM
LD50 [3]: >100 µM

COC[C@H](NC(=O)[C@H](CC(=O)NOC(C)(C)C)NC(=O)CN1CCOCC1)C(=O)NCc1cccc2ccccc12 [DPLG-2143, (S)—N^4-(tert-butoxy)-N^1—((S)-3-methoxy-1-((naphthalen-1-ylmethyl)amino)-1-oxopropan-2-yl)-2-(2-morpholinoacetamido)succinamide]
IC50 [1]: 250 nM
SI (selectivity index) [1]: 78
IC50 [2]: 19600 nM
LD50 [3]: >100 µM

COC[C@H](NC(=O)[C@H](CC(=O)NC(C)(C)C)NC(=O)CCc1ccccc1)C(=O)NCc1cccc2ccccc12 [DPLG-2230, (S)—N^4-(tert-butyl)-N^1—((S)-3-methoxy-1-((naphthalen-1-ylmethyl)amino)-1-oxopropan-2-yl)-2-(3-phenylpropanamido)succinamide]
LD50 [3]: 1.11 µM
